Measured values reported in patent US20220218778A1, “COMPOSITION FOR REDUCING BODY FAT COMPRISING GREEN TEA EXTRACT CONTAINING GALLOCATECHIN GALLATE AS AN ACTIVE INGREDIENT AND MANUFACTURING METHOD THEREOF” (AMOREPACIFIC CORPORATION, priority 2021, published 2022).

Columns and labels:
Type in all cases: cell-based, Mouse
3T3-L1 adipocytes [1] = experiment: Oxygen consumption rate (XF analyzer) in adipocytes; conditions: FIG. 18; 20 μM GCG, 24 hours; with oligomycin, FCCP, rotenone/antimycin A; normalized to protein
Description: Mouse-derived 3T3-L1 adipocytes (American Type Culture Collection, ATCC) were cultured in an incubator using DMEM (Dulbecco's modified Eagle's medium; Sigma-Aldrich) containing 10% bovine calf serum (BCS; HyClone) and 1% penicillin/streptomycin (P/S; Sigma-Aldrich) under a standard condition (37° C., 5% CO2). For cellular differentiation, 48 hours after the cells were filled 100% on a plate, they were cultured again for 48 hours after replacing the medium with DMEM supplemented with 10% fetal bovine serum (FBS; Hyclone), 1% P/S, 0.5 mM 3-isobutyl-1-methylxanthine (IBMX; Sigma-Aldrich), 1 μM dexamethasone (Sigma-Aldrich) and 5 μg/mL insulin (Sigma-Aldrich). Then, differentiation of adipocytes was induced by culturing the cells additionally for 10 days while replacing the medium with a medium supplemented with 10% FBS, 5 μg/mL insulin and 1% P/S at two-day intervals.
The adipocytes differentiated as in Reference Example 1 were treated with 20 μM gallocatechin gallate (GCG), which is contained in large quantities particularly in the heat-transformed green tea extract (HTGT) (Table 2), for 24 hours. A negative control group was treated with a vehicle (distilled water).
Then, oxygen level and oxygen consumption rate (OCR) were measured using an XF analyzer (Agilent, Santa Clara, Calif., USA). […]

[2] = tested on: brown adipocyte-associated markers (Ucp1, Cidea, Cox8b, Dio2, Elovl3, Pgc1a, Prdm16); experiment: Brown adipocyte-associated marker gene expression (qPCR) in adipocytes; conditions: FIG. 14; GCG 0.1, 1, 5, 10 or 20 μM; 24 hours
Description: After extracting RNA using Trizol™ reagent (Thermo Fisher Scientific), cDNA was synthesized using a RevertAid™ 1st strand cDNA synthesis kit (Thermo Fisher Scientific). Then, the expression level of target genes was quantified by CFX96 real-time quantitative PCR (qPCR; Bio-Rad) using a housekeeping gene (cyclophilin).

3T3-L1 adipocytes [3] = experiment: Triglyceride degradation in adipocytes (glycerol quantification); conditions: FIG. 9; HTGT 10, 50 or 100 μg/mL, IBMX 500 μM; 4 hours

O=C(O[C@@H]1Cc2c(O)cc(O)cc2O[C@H]1c1cc(O)c(O)c(O)c1)c1cc(O)c(O)c(O)c1 [GCG, gallocatechin gallate]
oxygen consumption rate (OCR) (3T3-L1 adipocytes [1]): increased OCR | expression of Elovl3 [2]: increased the expression of the fat degradation-associated Elovl3 | expression of Prdm16 [2]: not changed significantly | expression of uncoupling protein 1 (Ucp1) [2]: increased the expression

CC(C)Cn1c(=O)n(C)c(=O)c2[nH]cnc21 [IBMX, 3-isobutyl-1-methylxanthine]
degradation of triglycerides in adipocytes (glycerol produced) (3T3-L1 adipocytes [3]): facilitating the degradation of triglycerides in adipocytes
